Measurements from patent US20100249048A1, “BETA GLYCOLIPIDS FOR THE TREATMENT OF CALCIFICATION RELATED DEGENERATIVE DISORDERS” (priority 2007, published 2010).

Tests used:
[1] = system: high Adenine, high phosphate rat model; assay: MSCT assessment of valve calcification (Agatston score), foscarnet study; assay type: in vivo; details: 5 mg/kg foscarnet i.p. (group B) vs diet group A, ninth week, P=0.05
Method: MSCT scanning without contrast was performed on all rats (Brilliance, Philips Medical Systems, Groningen, Netherlands) on the ninth week. Study parameters were: 120 KVp, 300 mAs, slice thickness 0.67 mm, increment 0.3 mm. The scan was analyzed by an operator blinded to the study groups, on an off-line CT workstation. The Agatston Score was calculated by multiplying the area of a calcified lesion with a weighted CT attenuation score dependent on the maximal CT attenuation (HU) within a lesion as previously described [Agatston, A. S., et al. Journal of the American College of Cardiology 15:827-832 (1990)]. In order to asses the effect of foscarnet on treating AVC in vivo, the high Adenine, high phosphate rat model was used. Three different groups (10 rats each) were fed daily with the Adenine diet (diet group) for 6 weeks (Group A). Group B (n=9) followed the same protocol and was also treated with 5 mg/kg foscarnet administered intraperitoneally (i.p.). The control group C, received daily chew. Renal function tests, electrolytes were followed for nine weeks. Multislice computed tomography (MSCT) was performed at the ninth week. Calcium scores were calculated using the Agatston score.

TNF-α = TNF-α levels in supernatants of myofibroblasts; assay type: cell-based, rat; details: myofibroblasts treated with foscarnet; 69 pg/ml without
Description: (§1) In order to investigate whether the beneficial effect of foscarnet on the calcification process also affects immunomodulatory parameters, the inventors the effect of foscarnet on the levels of cytokines that are known as having a role in osteoblast transformation and maturation. Therefore, levels of TNF-α and IL-6 were next measured in supernatants of myofibroblasts treated with foscarnet. […] IL-6 levels.

IL-6 = IL-6 levels in supernatants of myofibroblasts; assay type: cell-based, rat; details: myofibroblasts treated with foscarnet
Description: as §1

valve myofibroblasts = assay: Von Kossa staining of cultured valve myofibroblasts (calcification / mineralization); assay type: cell-based, rat; details: for osteogenic differentiation and calcification of valve myofibroblasts (Von kossa staining): 1, 10 or 100 μg/ml, fourteen days
Method: The present inventors have now further explored the calcification process in an attempt to specifically identify targets for interfering and prevention thereof. Therefore, the inventors next examined myofibroblasts obtained from the aortic valve of wild type rats, cultured in 24 well plates.
Myofibroblasts were incubated with PTH ([…]), or phosphate, 1, 10 or 100 μg/ml) for fourteen days. As shown by the Von kossa (calcium) staining presented by FIG. 7, the phosphate treatment, but not the PTH, induces osteogenic differentiation and calcification of valve myofibroblasts.
To test the possibility that inhibition of PIT1 would decrease mineralization, valve myofibroblasts were incubated with 10 μg/ml phosphate, or with phosphate and 0.5 mM foscarnet, the specific PIT1 inhibitor for 7 days.

## O=C(O)P(=O)(O)O [foscarnet]
[1]
  AVC, Agatston score (MSCT): 21
[1]; listed as Forscarnet
  AVC, Agatston score (MSCT): significant decrease
TNF-α
  TNF-α levels in supernatants: 5 pg/mL
IL-6
  IL-6 levels in supernatants: no effect
Valve myofibroblasts; 10 μg/ml phosphate plus 0.5 mM foscarnet, 7 days
  cell mineralization (Von kossa staining): completely inhibited

## phosphate
Valve myofibroblasts
  osteogenic differentiation and calcification of valve myofibroblasts (Von kossa staining): induces

B1: PTH: peptide hormone, the most important regulator of calcium and phosphate metabolism (peptide, UniProt P01270 32-115, looked up)
Parathyroid hormone: SVSEIQLMHNLGKHLNSMERVEWLRKKLQDVHNFVALGAPLAPRDAGSQRPRKKEDNVLVESHEKSLGEADKADVNVLTKAKSQ
modifications: Parathyroid hormone
Valve myofibroblasts
  osteogenic differentiation and calcification of valve myofibroblasts (Von kossa staining): not
